In PubChem BioAssay (NCI) one finds GI50 and TGI data, which are given here for 16 compounds.

Molecules are shown by their SMILES. Values joined by “and” are separate entries in the source; they are usually repeats but may differ in a detail not shown here. Equal entries are not always repeated.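 Cells were grown in 96-well plates and exposed to each compound for 48 hours at five concentrations; endpoints were interpolated linearly between bracketing concentrations, or set to the highest concentration if not reached. Here, GI50 denotes the concentration required for 50% inhibition of growth. TGI denotes the concentration required for complete inhibition of growth.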

The first test relates to PC-3 prostate. Briefly: NCI-60 cell line screen, 48 h.
As for `COc1ccc(-c2oc(=O)ccc2-c2cc(OC)c(OC)c(OC)c2)cc1F`, the GI50 was 37.2 µM and the TGI was above 100 µM.
Turning to `O=C(c1ccc(F)c(F)c1Nc1ccc(I)cc1F)N1CC(O)([C@@H]2CCCCN2)C1`, the GI50 was 5.57 µM and > 9.27 µM; the TGI is 18.8 µM and > 10 µM.
Compound `Oc1cc(O)c2c(c1)OC(c1ccc(O)c(O)c1)C(OC1(c3cc(O)c(O)c(O)c3)Oc3cc(O)cc(O)c3C(O)C1O)C2` (configuration not stated) displayed a TGI above 100 µM.
As for `COc1cc(CNCCCN2C(=O)c3ccc4c5c(ccc(c35)C2=O)C(=O)N(CCCNCc2cc(OC)c(OC)c(OC)c2)C4=O)cc(OC)c1OC`, the GI50 was 0.387 µM and the TGI was determined as 1.57 µM.
The matching figures for `CC(C)=CCc1cc(O)cc2c1OC(C=C(C)C)C1=C2C(=O)C2=C(NCCS2(=O)=O)C1=O` (configuration not stated): 4.14 µM and above 16.7 µM.
As to `O=c1[nH]c(=O)n(C2CC(O)C(CO)O2)cc1CO` (configuration not stated), the GI50 is above 100 µM and the TGI was above 100 µM.
On to `Cc1nc2cnc(N)c(C#Cc3cncc(C(=O)Nc4ccc(CN5CCN(C)CC5)c(C(F)(F)F)c4)c3)c2nc1C`, for which the GI50 is 1.48 µM and the TGI was determined as 17.4 µM.
In the case of `CC(=O)OC12c3ccccc3-c3ccccc3C1C1C(=O)N(C)C(=O)C12Cl` (configuration not stated), the TGI was above 10 µM.
The same measure, in the same setting: the figure for `COc1c(OC)c(OC)c(C(=O)/C=C/c2ccccc2)c(OC)c1OC` is 31.1 µM; for `COc1ccc(C(O)c2nccn2C)c(OC)c1` (configuration not stated) it is above 100 µM.
Take `NS(=O)(=O)c1ccc(N(/C=C/C(=O)C(F)(F)F)CC(=O)c2ccc(Cl)cc2)cc1`: the GI50 is 26.4 µM and the TGI was 84.1 µM.
Regarding `CS(=O)(=O)CCCn1c(=O)c(Oc2ccc(F)cc2F)cc2cnc(NC3CCOCC3)nc21`, the GI50 is above 25 µM and the TGI is above 25 µM.
`N#C/C=C(\c1ccc([N+](=O)[O-])cc1)n1nnc2cc(Cl)c(Cl)cc21`: the GI50 was 1.56 µM and the TGI was found to be 4 µM.
`O=C(CC(O)(C(F)(F)F)C(F)(F)F)c1cc(CC(=O)C(O)(C(F)(F)F)C(F)(F)F)cc(CC(=O)C(O)(C(F)(F)F)C(F)(F)F)c1` registered a TGI of 3.95 µM.
As for `CC1(C)OCCn2c1nc1c(N3CCOCC3)nc(-c3cnc(N)nc3)nc12`, the GI50 is 0.318 µM and the TGI was above 68.6 µM.
As to `O=C(c1c(F)ccc(NS(=O)(=O)N2CC[C@@H](F)C2)c1F)c1c[nH]c2ncc(-c3cnc(C4CC4)nc3)cc12`, the GI50 was 7.03 µM and 6.82 µM; the TGI was > 10 µM and 70 µM.

The subject of another test is RPMI-8226 leukemia. Nature of the test: NCI-60 cell line screen, 48 h.
`COc1ccc(-c2oc(=O)ccc2-c2cc(OC)c(OC)c(OC)c2)cc1F`: the GI50 is 11.1 µM and the TGI stood at 61.4 µM.
For the compound `O=C(c1ccc(F)c(F)c1Nc1ccc(I)cc1F)N1CC(O)([C@@H]2CCCCN2)C1`, the GI50 is 0.992 µM and 3.1 µM; the TGI is 18.2 µM and > 10 µM.
Compound `Oc1cc(O)c2c(c1)OC(c1ccc(O)c(O)c1)C(OC1(c3cc(O)c(O)c(O)c3)Oc3cc(O)cc(O)c3C(O)C1O)C2` (configuration not stated) came in with a TGI of 49.5 µM.
In the case of `COc1cc(CNCCCN2C(=O)c3ccc4c5c(ccc(c35)C2=O)C(=O)N(CCCNCc2cc(OC)c(OC)c(OC)c2)C4=O)cc(OC)c1OC`, the GI50 was 0.523 µM and the TGI came out at 2.34 µM.
The matching figures for `CC(C)=CCc1cc(O)cc2c1OC(C=C(C)C)C1=C2C(=O)C2=C(NCCS2(=O)=O)C1=O` (configuration not stated): 4.42 µM and 14 µM.
Taken in the same sequence, the figures for `O=c1[nH]c(=O)n(C2CC(O)C(CO)O2)cc1CO` (configuration not stated) were above 100 µM and above 100 µM.
Taken in the same sequence, the figures for `Cc1nc2cnc(N)c(C#Cc3cncc(C(=O)Nc4ccc(CN5CCN(C)CC5)c(C(F)(F)F)c4)c3)c2nc1C` were 1.65 µM and 8.51 µM.
Consider `CC(=O)OC12c3ccccc3-c3ccccc3C1C1C(=O)N(C)C(=O)C12Cl` (configuration not stated), for which the TGI was above 10 µM.
With `COc1c(OC)c(OC)c(C(=O)/C=C/c2ccccc2)c(OC)c1OC`, the TGI is 20.3 µM.
`COc1ccc(C(O)c2nccn2C)c(OC)c1` (configuration not stated) showed a TGI above 100 µM.
`NS(=O)(=O)c1ccc(N(/C=C/C(=O)C(F)(F)F)CC(=O)c2ccc(Cl)cc2)cc1`: the GI50 is 20.2 µM and the TGI was found to be 53.6 µM.
The matching figures for `CS(=O)(=O)CCCn1c(=O)c(Oc2ccc(F)cc2F)cc2cnc(NC3CCOCC3)nc21`: above 25 µM and above 25 µM.
Taken in the same sequence, the figures for `N#C/C=C(\c1ccc([N+](=O)[O-])cc1)n1nnc2cc(Cl)c(Cl)cc21` were 0.604 µM and 2.91 µM.
`O=C(CC(O)(C(F)(F)F)C(F)(F)F)c1cc(CC(=O)C(O)(C(F)(F)F)C(F)(F)F)cc(CC(=O)C(O)(C(F)(F)F)C(F)(F)F)c1` yielded a TGI above 10 µM.
Consider `CC1(C)OCCn2c1nc1c(N3CCOCC3)nc(-c3cnc(N)nc3)nc12`, for which the GI50 is 2.14 µM and the TGI turned out to be 12.5 µM.
As for `O=C(c1c(F)ccc(NS(=O)(=O)N2CC[C@@H](F)C2)c1F)c1c[nH]c2ncc(-c3cnc(C4CC4)nc3)cc12`, the GI50 was 5.59 µM and 5.45 µM; the TGI was > 10 µM and 42.2 µM.

In another test the test system is SF-268 CNS. Briefly: NCI-60 cell line screen, 48 h.
For the compound `COc1ccc(-c2oc(=O)ccc2-c2cc(OC)c(OC)c(OC)c2)cc1F`, the GI50 was 33.6 µM and the TGI was above 100 µM.
`O=C(c1ccc(F)c(F)c1Nc1ccc(I)cc1F)N1CC(O)([C@@H]2CCCCN2)C1`: the GI50 is 5.02 µM and 4.94 µM; the TGI was 20.6 µM and > 10 µM.
Regarding `Oc1cc(O)c2c(c1)OC(c1ccc(O)c(O)c1)C(OC1(c3cc(O)c(O)c(O)c3)Oc3cc(O)cc(O)c3C(O)C1O)C2` (configuration not stated), the TGI was found to be 66.2 µM.
Consider `COc1cc(CNCCCN2C(=O)c3ccc4c5c(ccc(c35)C2=O)C(=O)N(CCCNCc2cc(OC)c(OC)c(OC)c2)C4=O)cc(OC)c1OC`, for which the GI50 is 0.542 µM and the TGI worked out at 2.27 µM.
The matching figures for `CC(C)=CCc1cc(O)cc2c1OC(C=C(C)C)C1=C2C(=O)C2=C(NCCS2(=O)=O)C1=O` (configuration not stated): 2.34 µM and 8.2 µM.
Take `O=c1[nH]c(=O)n(C2CC(O)C(CO)O2)cc1CO` (configuration not stated): the GI50 was above 100 µM and the TGI is above 100 µM.
As to `Cc1nc2cnc(N)c(C#Cc3cncc(C(=O)Nc4ccc(CN5CCN(C)CC5)c(C(F)(F)F)c4)c3)c2nc1C`, the GI50 is 0.64 µM and the TGI amounted to 10.3 µM.
